Laboratory results: PubChem BioAssay AID2060484 (Molecular Pharmacology Branch, DTP, NCI, 2025)

Tested on: SUM149PT spheroids with HUVEC/MSC, viability
Experiment: Anticancer human tumor SUM149PT cell line growth inhibition [GQUAD];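 further: spheroids exposed to drugs for seven days before readout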;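 on viability, T/C: percent viability relative to DMSO vehicle control taken as 100%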
Conditions: for IC50: curve of first compound; for viability, T/C: stronger effect = lower value
Description: DNA G-quadruplex Stabilizer Agents in Combinations in Complex Spheroids
A high-throughput screen of multi-cell type tumor spheroids was designed to identify active combinations of DNA G-quadruplex stabilizer agents and targeted small molecules. Complex spheroids include a stromal component modeled by human endothelial cells (HUVEC) and fibroblasts modeled by human mesenchymal stem cells (MSCs). The concentration ranges selected for each drug and investigational agent were based upon clinically achievable concentrations if the clinical Cmax of the agent was known.
Compounds. The drugs and investigational agents: pidnarulex (CX-5461; NSC782164), APTO-253 (NSC789042), BRACO-19 (NSC847499), peposertib (NSC802822), ceralasertib (NSC780249), elimusertib (NSC800525), camonsertib (NSC841442), AZD-1390 (NSC803789), olaparib (NSC753686), talazoparib (NSC767125), ART-558 (NSC835418), sotorasib (NSC818433), MRTX-1133 (NSC836407), SN-38 (NSC673596), topotecan (NSC609699), etoposide (NSC141540), doxorubicin (NSC123127), gemcitabine (NSC613327), 5-fluorouracil (NSC19893), paclitaxel (NSC125973), vemurafenib (NSC761431), panobinostat (NSC761190), R-306465 (JNJ-16241199; NSC773264), adavosertib (NSC754352), TP-3654 (NSC805149), carboplatin (NSC241240), KSQ-4279 (NSC840948), and staurosporine (NSC755774) were obtained from the National Cancer Institute (NCI) Developmental Therapeutics Program Chemical Repository (34). The FDA-approved anticancer drug set is available from the NCI Developmental Therapeutics Program. […] The stock solutions were prepared in dimethyl sulfoxide (DMSO, Sigma-Aldrich, St. Louis, MO, cat. D2650) at 800-fold the tested concentration and stored at -70 degrees C prior to their use. All drugs and investigational agents were tested over a range starting from a high concentration at or near the clinical Cmax and decreasing in half-log increments. If the clinical Cmax for an agent had not been determined, the highest concentration tested was 10 microM.
2.3 Cell Culture. All cells were maintained in an incubator at 37 degrees C and 5% CO2 with 95% humidity. The PDC lines were cultured according to standard operating procedures established by the NCI PDMR. All PDCs were thawed and cultured in Matrigel-coated flasks prepared with a working solution of 1X Ham's F-12 nutrient mix, without supplementation (Invitrogen, cat. 11765054), 100 U/mL penicillin-streptomycin (Invitrogen, cat. 15140122), and 2.5% Matrigel (Corning Inc., cat. 354248) for the first three passages. The 857933-349-R-J2-PDC line was cultured in 6C/Colon 1B media, which includes advanced DMEM/F-12 (Thermo Fisher Scientific, cat. 12634028), 10 mM HEPES (Thermo Fisher Scientific, cat. 15630080), 1X GlutaMAX supplement (Thermo Fisher Scientific, cat. 35050061), 0.1 mg/mL primocin (InvivoGen, cat. ant-pm-2), 10% defined fetal bovine serum, heat inactivated (HyClone Laboratories Inc., cat. SH30070.03HI), 50% L-WRN conditioned media (ATCC, cat. CRL-3276), 1.25 mM N-Acetyl-L-cysteine (Sigma-Aldrich, cat. A9165), 10 mM nicotinamide (Sigma-Aldrich, cat. N0636), 1X B-27 supplement (Thermo Fisher Scientific, cat. 17504044), 1X N-2 supplement (Thermo Fisher Scientific, cat. 17502048), 10 microM Y-27632 dihydrochloride (Tocris Bioscience, cat. 1254), and 50 ng/mL human EGF recombinant protein (Thermo Fisher Scientific, cat. PHG0311). The 485176-168-R4-J1-PDC line was cultured in Panc media, which includes all 6C/Colon 1B media components plus 100 ng/mL human FGF-10 (Thermo Fisher Scientific, cat. 100-26), 500 nM SB-431542 (Selleckchem, cat. S1067), and gastrin (Tocris, cat. 3006).
[…]

[1] = second compound 0.0316 µM, first compound 0.0316 µM
[2] = second compound 0.0316 µM, first compound 0.1 µM
[3] = second compound 0.0316 µM, first compound 0.316 µM
[4] = second compound 0.0316 µM, first compound 1 µM
[5] = second compound 0.0316 µM, first compound 3.16 µM
[6] = second compound 0.0316 µM, first compound 10 µM
[7] = second compound 0.1 µM, first compound 0.0316 µM
[8] = second compound 0.1 µM, first compound 0.1 µM
[9] = second compound 0.1 µM, first compound 0.316 µM
[10] = second compound 0.1 µM, first compound 1 µM
[11] = second compound 0.1 µM, first compound 3.16 µM
[12] = second compound 0.1 µM, first compound 10 µM
[13] = second compound 0.316 µM, first compound 0.0316 µM
[14] = second compound 0.316 µM, first compound 0.1 µM
[15] = second compound 0.316 µM, first compound 0.316 µM
[16] = second compound 0.316 µM, first compound 1 µM
[17] = second compound 0.316 µM, first compound 3.16 µM
[18] = second compound 0.316 µM, first compound 10 µM
[19] = second compound 1 µM, first compound 0.0316 µM
[20] = second compound 1 µM, first compound 0.1 µM
[21] = second compound 1 µM, first compound 0.316 µM
[22] = second compound 1 µM, first compound 1 µM
[23] = second compound 1 µM, first compound 3.16 µM
[24] = second compound 1 µM, first compound 10 µM
[25] = second compound 3.16 µM, first compound 0.0316 µM
[26] = second compound 3.16 µM, first compound 0.1 µM
[27] = second compound 3.16 µM, first compound 0.316 µM
[28] = second compound 3.16 µM, first compound 1 µM
[29] = second compound 3.16 µM, first compound 3.16 µM
[30] = second compound 3.16 µM, first compound 10 µM
[31] = second compound 10 µM, first compound 0.0316 µM
[32] = second compound 10 µM, first compound 0.1 µM
[33] = second compound 10 µM, first compound 0.316 µM
[34] = second compound 10 µM, first compound 1 µM
[35] = second compound 10 µM, first compound 3.16 µM
[36] = second compound 10 µM, first compound 10 µM

C#Cc1c(F)ccc2cc(O)cc(-c3ncc4c(N5CC6CCC(C5)N6)nc(OCC56CCCN5CC(F)C6)nc4c3F)c12 (stereo unspecified) + CN(C)c1ccc(Nc2c3ccc(NC(=O)CCN4CCCC4)cc3nc3cc(NC(=O)CCN4CCCC4)ccc23)cc1
IC50 (second compound 0.0316 µM): 5270 nM | IC50 (second compound 0.1 µM): 7470 nM | IC50 (second compound 0.316 µM): 2450 nM | IC50 (second compound 1 µM): 4570 nM | IC50 (second compound 3.16 µM): 1570 nM | IC50 (second compound 10 µM): 1710 nM | viability, T/C [1]: 100% | viability, T/C [2]: 93.3% | viability, T/C [3]: 73.5% | viability, T/C [4]: 73.8% | viability, T/C [5]: 57.2% | viability, T/C [6]: 40.8% | viability, T/C [7]: 107% | viability, T/C [8]: 102% | viability, T/C [9]: 88.1% | viability, T/C [10]: 66.3% | viability, T/C [11]: 58.1% | viability, T/C [12]: 46.6% | viability, T/C [13]: 93.6% | viability, T/C [14]: 83.9% | viability, T/C [15]: 68.7% | viability, T/C [16]: 57.1% | viability, T/C [17]: 49.6% | viability, T/C [18]: 38.6% | viability, T/C [19]: 75.5% | viability, T/C [20]: 82.8% | viability, T/C [21]: 77.2% | viability, T/C [22]: 61.3% | viability, T/C [23]: 61.1% | viability, T/C [24]: 34.1% | viability, T/C [25]: 88.2% | viability, T/C [26]: 81.6% | viability, T/C [27]: 73.3% | viability, T/C [28]: 51.3% | viability, T/C [29]: 45.2% | viability, T/C [30]: 31% | viability, T/C [31]: 80.7% | viability, T/C [32]: 86.6% | viability, T/C [33]: 62.8% | viability, T/C [34]: 56.3% | viability, T/C [35]: 45% | viability, T/C [36]: 19%

COc1cc(C2c3cc4c(cc3C(OC3OC5COC(C)OC5C(O)C3O)C3COC(=O)C23)OCO4)cc(OC)c1O (stereo unspecified) + CN(C)c1ccc(Nc2c3ccc(NC(=O)CCN4CCCC4)cc3nc3cc(NC(=O)CCN4CCCC4)ccc23)cc1
IC50 (second compound 0.0316 µM): 1270 nM | IC50 (second compound 0.1 µM): 1260 nM | IC50 (second compound 0.316 µM): 1310 nM | IC50 (second compound 1 µM): 732 nM | IC50 (second compound 3.16 µM): 652 nM | IC50 (second compound 10 µM): 619 nM | viability, T/C [1]: 107% | viability, T/C [2]: 84.8% | viability, T/C [3]: 62.9% | viability, T/C [4]: 55.2% | viability, T/C [5]: 44.8% | viability, T/C [6]: 21.6% | viability, T/C [7]: 102% | viability, T/C [8]: 88.8% | viability, T/C [9]: 59.5% | viability, T/C [10]: 55% | viability, T/C [11]: 44.7% | viability, T/C [12]: 21.4% | viability, T/C [13]: 87.8% | viability, T/C [14]: 78.1% | viability, T/C [15]: 59.8% | viability, T/C [16]: 59.5% | viability, T/C [17]: 40.2% | viability, T/C [18]: 18.1% | viability, T/C [19]: 87.4% | viability, T/C [20]: 75.3% | viability, T/C [21]: 54.4% | viability, T/C [22]: 48.1% | viability, T/C [23]: 36.8% | viability, T/C [24]: 20.5% | viability, T/C [25]: 86.6% | viability, T/C [26]: 74.6% | viability, T/C [27]: 49.7% | viability, T/C [28]: 48% | viability, T/C [29]: 37.4% | viability, T/C [30]: 17.6% | viability, T/C [31]: 85.9% | viability, T/C [32]: 68.5% | viability, T/C [33]: 49.1% | viability, T/C [34]: 48.7% | viability, T/C [35]: 41% | viability, T/C [36]: 18.3%

CC1COCCN1c1cc(C2(S(C)(=N)=O)CC2)nc(-c2ccnc3[nH]ccc23)n1 (stereo unspecified) + Cc1[nH]c2ccc(F)cc2c1-c1nc2c3cccnc3c3ncccc3c2[nH]1
IC50 (second compound 0.0316 µM): 2380 nM | IC50 (second compound 0.1 µM): 2650 nM | IC50 (second compound 0.316 µM): 2830 nM | IC50 (second compound 1 µM): 2630 nM | IC50 (second compound 3.16 µM): 2450 nM | IC50 (second compound 10 µM): 2170 nM | viability, T/C [1]: 95.9% | viability, T/C [2]: 93.6% | viability, T/C [3]: 99.7% | viability, T/C [4]: 79.5% | viability, T/C [5]: 40.5% | viability, T/C [6]: 17.3% | viability, T/C [7]: 112% | viability, T/C [8]: 99.5% | viability, T/C [9]: 86.7% | viability, T/C [10]: 89.2% | viability, T/C [11]: 41.9% | viability, T/C [12]: 22.6% | viability, T/C [13]: 103% | viability, T/C [14]: 105% | viability, T/C [15]: 89.8% | viability, T/C [16]: 83.6% | viability, T/C [17]: 45% | viability, T/C [18]: 20.6% | viability, T/C [19]: 91.9% | viability, T/C [20]: 100% | viability, T/C [21]: 97.1% | viability, T/C [22]: 83.9% | viability, T/C [23]: 43.5% | viability, T/C [24]: 19.6% | viability, T/C [25]: 86.5% | viability, T/C [26]: 84.9% | viability, T/C [27]: 89.7% | viability, T/C [28]: 75.4% | viability, T/C [29]: 42.8% | viability, T/C [30]: 19% | viability, T/C [31]: 103% | viability, T/C [32]: 96.5% | viability, T/C [33]: 94.3% | viability, T/C [34]: 79.5% | viability, T/C [35]: 35.6% | viability, T/C [36]: 18.3%
